Legend:
[1] = biological target: T1, central CCK-B receptor (Cavia porcellus, UniProt H0VZC5); test: Inhibition of the binding of [3-H][N-methyl-N-leucine]CCK-8 to guinea-pig cortical membranes; details: guinea-pig cortical membranes, 150 minutes at 25° C.
T1 construct: Cerebral cortices of male white guinea-pigs were thus used; from tissue; host or cells: cerebral cortex membranes of male white guinea-pigs
T1 sequence (H0VZC5 1-426): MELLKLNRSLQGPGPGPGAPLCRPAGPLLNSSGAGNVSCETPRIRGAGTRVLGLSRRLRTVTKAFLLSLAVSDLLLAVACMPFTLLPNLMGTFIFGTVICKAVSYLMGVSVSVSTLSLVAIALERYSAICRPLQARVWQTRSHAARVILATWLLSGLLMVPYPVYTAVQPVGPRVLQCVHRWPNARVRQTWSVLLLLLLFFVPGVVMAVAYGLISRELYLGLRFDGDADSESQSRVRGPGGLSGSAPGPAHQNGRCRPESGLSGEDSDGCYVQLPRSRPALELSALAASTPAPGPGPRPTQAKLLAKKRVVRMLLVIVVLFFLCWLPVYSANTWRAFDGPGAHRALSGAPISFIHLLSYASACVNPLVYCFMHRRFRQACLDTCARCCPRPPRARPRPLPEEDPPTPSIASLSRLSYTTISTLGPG
Description: The ability of the compounds of the invention to interact with the central CCK-B receptor was evaluated with the use of non-sulphated [3-H] […] 225 (3) (1990), 1278-1286].
Cerebral cortices of male white guinea-pigs were thus used, according to the method mentioned above, so as to obtain a membrane content corresponding to about 300 mcg of proteins/ml. The membranes were incubated together with the radioactive tracer and the compounds under test for 150 minutes at 25° C. After the supernatant had been discarded, the radioactivity associated with the pellet was determined with a liquid scintillator. The specific binding was determined as the difference between the binding in the absence and in the presence of 5.10^-6 M CCK-8.

[2] = test system: mouse; test: Black and White Box test in the mouse (anxiolytic activity); type: in vivo; details: for LIGHT TIME TOTAL TIME / LIGHT-DARK MOVEMENTS / MOV. DARK % TOTAL MOV. / TOTAL MOVEMENTS: 5 minutes
Description: It has recently been postulated that the central CCK-B receptor has an important role in anxiety. This is in accordance with studies also carried out in man, which have shown that the central CCK-B mechanisms have an important function in the mediation of panic attacks [Bradwejn, H. et al; J. Psychopharmacology 6 (1992), 345]. […] This experimental model, which was carried out according to Costall et al [Pharm. Biochem. Behav. 32 (1989), 777-785], used a box with dimensions of 45×21×21(h) cm divided into 2 compartments which communicated with one another through a 13×5 cm hole. The smaller compartment (1/3 of the total area) had black walls, whereas the larger had transparent walls and was illuminated by a lamp which was placed 20 cm above the box and supplied light at 20W. Under the floor there was an activity meter which recorded the movements performed by the animal in the individual compartments. The experiment was started by placing the animal in the centre of the illuminated box; as well as movements, the time which the animal spent in the dark and in the light areas and the number of movements between the 2 compartments were then recorded for 5 minutes. A control animal generally preferred to stay in the dark compartment where it felt better protected from an unusual environmental situation which put it in a state of anxiety. In this experimental model, a compound having anxiolytic activity decreased the % of movements into the dark in comparison with the total movements, increased the movements between the two light-dark compartments, and increased the % of time spent in the light in comparison with the total time.
The results obtained are shown in Table 7, where the activities obtained with compounds 9, 21 and 51 are given, tested in comparison with diazepam.

Question: How did the IC50 [1] turn out when O=C(CC[C@@H](NC(=O)c1cc(Cl)cc(Cl)c1)C(=O)N1CCC2(CCCC2)CC1)Nc1cccc(C(=O)O)c1 [Compound 49] was run?
Answer: Its IC50 is 1.39 µM.

Question: Which IC50 [1] does the source give for CCCCCN(CCCCC)C(=O)[C@@H](CCC(=O)N[C@H](Cc1c[nH]c2ccccc12)C(=O)O)NC(=O)c1ccc2ccccc2c1 [Compound 42] here?
Answer: The IC50 was 1.88 µM.

Question: How did the IC50 [1] turn out when CN(C(=O)CC[C@@H](NC(=O)c1cc(Cl)cc(Cl)c1)C(=O)N1CCC2(CCCC2)CC1)c1ccc(C(=O)O)cc1 [Compound 48] was run?
Answer: Its IC50 is 0.44 µM.

Question: With O=C(CC[C@@H](NC(=O)c1cc(Cl)cc(Cl)c1)C(=O)N1CCC2(CCCC2)CC1)N[C@H](Cc1cccnc1)C(=O)O [Compound 26] as the compound, how does the IC50 [1] read?
Answer: Its IC50 is 0.25 µM.

Question: How did the IC50 [1] turn out when CC(Cc1ccccc1)(NC(=O)CC[C@@H](NC(=O)c1cc(Cl)cc(Cl)c1)C(=O)N1CCC2(CCCC2)CC1)C(=O)O (some centres unmarked) [Compound 45] was run?
Answer: Its IC50 is 0.58 µM.

Question: For CN1C(=O)CN=C(c2ccccc2)c2cc(Cl)ccc21 [DIAZEPAM, diazepam, reference compound], which “EFF. % VS CONTROL (LIGHT TIME TOTAL TIME)” value ([2]; 1.0 mg/kg IP) is on record?
Answer: The value was 19%.

Question: And the “EFF. % VS CONTROL (LIGHT-DARK MOVEMENTS)” value ([2]; 1.0 mg/kg IP)?
Answer: Its value is 37%.

Question: What about the “EFF. % VS CONTROL (MOV. DARK % TOTAL MOV.)” value ([2]; 1.0 mg/kg IP) of the same compound?
Answer: The value was -5%.

Question: And the “LIGHT TIME TOTAL TIME” value ([2]; 1.0 mg/kg IP)?
Answer: Its value is 29.3%.

Question: And the “LIGHT-DARK MOVEMENTS” value ([2]; 1.0 mg/kg IP)?
Answer: Its value is 19.9.

Question: And the “MOV. DARK % TOTAL MOV.” value ([2]; 1.0 mg/kg IP)?
Answer: Its value is 53%.

Question: And the “TOTAL MOVEMENTS” value ([2]; 1.0 mg/kg IP)?
Answer: Its value is 508.

Question: And the “EFF. % VS CONTROL (LIGHT TIME TOTAL TIME)” value ([2]; 3.0 mg/kg IP)?
Answer: The value was 37%.

Question: And the “EFF. % VS CONTROL (LIGHT-DARK MOVEMENTS)” value ([2]; 3.0 mg/kg IP)?
Answer: Its value is 54%.

Question: What about the “EFF. % VS CONTROL (MOV. DARK % TOTAL MOV.)” value ([2]; 3.0 mg/kg IP) of the same compound?
Answer: Its value is -7%.

Question: What about the “LIGHT TIME TOTAL TIME” value ([2]; 3.0 mg/kg IP) of the same compound?
Answer: Its value is 33.6%.

Question: What about the “LIGHT-DARK MOVEMENTS” value ([2]; 3.0 mg/kg IP) of the same compound?
Answer: The value was 22.3.

Question: What about the “MOV. DARK % TOTAL MOV.” value ([2]; 3.0 mg/kg IP) of the same compound?
Answer: Its value is 52%.

Question: And the “TOTAL MOVEMENTS” value ([2]; 3.0 mg/kg IP)?
Answer: The value was 539.

Question: And the “effect on the total movements parameter, result in words” value ([2]; 1 and 3 mg/kg)?
Answer: Its value is “significantly increased”.

Question: And the “anxiolytic activity, result in words” value ([2]; Black and White Box test, IP)?
Answer: The value was “active for all the parameters tested”.

Question: Which IC50 [1] does the source give for Cc1cccc(C(=O)N[C@H](CCC(=O)N[C@H](Cc2c[nH]c3ccccc23)C(=O)O)C(=O)N2CCC3(CCCC3)CC2)c1 [Compound 32] here?
Answer: The IC50 was 3.56 µM.

Question: With O=C(CC[C@@H](NC(=O)c1ccccc1)C(=O)N1CCC2(CCCC2)CC1)Nc1ccc(C(=O)O)cc1 [Compound 54] as the compound, how does the IC50 [1] read?
Answer: The IC50 was 9.21 µM.

Question: Which IC50 [1] does the source give for CC(C)(C)CCNC(=O)[C@@H](CCC(=O)NC(Cc1ccccc1)C(=O)O)NC(=O)c1cccc(Cl)c1 (some centres unmarked) [Compound 33] here?
Answer: Its IC50 is greater than 30 µM.

Question: Which IC50 [1] does the source give for O=C(O)CCNC(=O)CC[C@@H](NC(=O)c1cc(Cl)cc(Cl)c1)C(=O)N1CCC2(CCCC2)CC1 [Compound 3] here?
Answer: The IC50 was 0.73 µM.

Question: With O=C(O)CC[C@@H](NC(=O)CC[C@@H](NC(=O)c1cc(Cl)cc(Cl)c1)C(=O)N1CCC2(CCCC2)CC1)C(=O)NCCC12CC3CC(CC(C3)C1)C2 [Compound 40] as the compound, how does the IC50 [1] read?
Answer: The IC50 was greater than 30 µM.

Question: How did the IC50 [1] turn out when CN(C(=O)[C@@H](CCC(=O)O)NC(=O)CC[C@@H](NC(=O)c1cc(Cl)cc(Cl)c1)C(=O)N1CCC2(CCCC2)CC1)c1ccccc1 [Compound 37] was run?
Answer: The IC50 was 0.7 µM.

Question: For O=C(C[C@@H](NC(=O)c1cc(Cl)cc(Cl)c1)C(=O)N1CCC2(CCCC2)CC1)Nc1ccccc1C(=O)O [Compound 55], which IC50 [1] is on record?
Answer: Its IC50 is greater than 30 µM.

Question: How did the IC50 [1] turn out when O=C(CC[C@@H](NC(=O)c1cc(Cl)cc(Cl)c1)C(=O)N1CCC2(CCCC2)CC1)NC(Cc1ccc(Cl)cc1)C(=O)O (some centres unmarked) [Compound 17] was run?
Answer: Its IC50 is 0.68 µM.

— patent publication US5962502A, “Polyamidic acid derivatives with antigastrin activity, a method for their preparation, and their pharmaceutical use” (priority 1993, dated 1999)
